Assay results as given in the NIST ThermoML archive (doi:10.1021/acs.jced.6b00718).

Tests used:
[1] = for viscosity / mass density: 101 kPa; for viscosity / mass density / electrical conductivity: Liquid; for viscosity: Falling or rolling sphere viscometry; for mass density: Vibrating tube method; for electrical conductivity: 101.33 kPa, Alternating current cell with electrodes; for Normal melting temperature: DTA
[2] = xn = mol fraction of the nth substance listed; conditions: 101 kPa, Liquid, x1 = 1; for viscosity: Falling or rolling sphere viscometry; for mass density: Vibrating tube method

CCCC[N+]1(C)CCCC1.O=S(=O)([N-]S(=O)(=O)C(F)(F)F)C(F)(F)F
[1]
Conditions	Normal melting temperature [°C]	electrical conductivity [S/m]	mass density [kg/m3]	viscosity [mPa·s]
293.15 K	–	–	1399.8	98.72
293.4 K	–	0.22	–	–
296.1 K	–	0.249	–	–
298.15 K	–	–	1395.2	77.66
299.3 K	–	0.285	–	–
303.15 K	–	–	1390.7	62.29
303.3 K	–	0.334	–	–
309.3 K	–	0.419	–	–
313.15 K	–	–	1381.7	41.87
313.2 K	–	0.481	–	–
320 K	–	0.6	–	–
323.15 K	–	–	1372.8	29.61
323.2 K	–	0.66	–	–
333.15 K	–	–	1363.8	21.82
333.5 K	–	0.88	–	–
Metastable crystal	-20	–	–	–

CCCC[N+]1(C)CCCC1.O=S(=O)([N-]S(=O)(=O)C(F)(F)F)C(F)(F)F + CCCC#N
[2]
Conditions	mass density [kg/m3]	viscosity [mPa·s]
293.15 K	1399.8	98.72
298.15 K	1395.2	77.66
303.15 K	1390.7	62.29
313.15 K	1381.7	41.87
323.15 K	1372.8	29.61
333.15 K	1363.8	21.82

CCCC[N+]1(C)CCCC1.O=S(=O)([N-]S(=O)(=O)C(F)(F)F)C(F)(F)F + N#CCCCC#N
[2]
Conditions	mass density [kg/m3]	viscosity [mPa·s]
293.15 K	1399.8	98.72
298.15 K	1395.2	77.66
303.15 K	1390.7	62.29
313.15 K	1381.7	41.87
323.15 K	1372.8	29.61
333.15 K	1363.8	21.82

CCCC[N+]1(C)CCCC1.O=S(=O)([N-]S(=O)(=O)C(F)(F)F)C(F)(F)F + N#CCCCCC#N
[2]
Conditions	mass density [kg/m3]	viscosity [mPa·s]
293.15 K	1399.8	98.72
298.15 K	1395.2	77.66
303.15 K	1390.7	62.29
313.15 K	1381.7	41.87
323.15 K	1372.8	29.61
333.15 K	1363.8	21.82

CCCC#N [butanenitrile]
[1]
Conditions	mass density [kg/m3]	viscosity [mPa·s]
293.15 K	791.1	0.88
298.15 K	786.4	0.86
303.15 K	781.8	0.84
313.15 K	772.4	0.81
323.15 K	763	0.78
333.15 K	753.5	0.75

N#CCCCCC#N [hexanedinitrile]
[1]
Conditions	Normal melting temperature [°C]	mass density [kg/m3]	viscosity [mPa·s]
293.15 K	–	962.3	7.17
298.15 K	–	958.6	6.31
303.15 K	–	954.8	5.53
313.15 K	–	947.2	4.54
323.15 K	–	939.8	3.73
333.15 K	–	932.3	3.02
Crystal	6.2	–	–

N#CCCCC#N [pentanedinitrile]
[1]
Conditions	mass density [kg/m3]	viscosity [mPa·s]
293.15 K	987	6.97
298.15 K	983.1	6.12
303.15 K	979.1	5.39
313.15 K	971.2	4.25
323.15 K	963.4	3.47
333.15 K	955.6	2.88
